For five compounds, IC50 results are on record in paper PMC11500612, “Differential effects of inosine monophosphate dehydrogenase (IMPDH/GuaB) inhibition in Acinetobacter baumannii and Escherichia coli” (Journal of Bacteriology, 2024).

Holding throughout (type): biochemical
One test has as its target GuaB^Sa (Staphylococcus aureus, UniProt Q2FJM6). Put plainly: NADH production, NAD(P)H-Glo luminescence. From the text:
NADH production, NAD(P)H-Glo luminescence on GuaB^Sa

The next test deals with T1, GuaB^Ec (Escherichia coli, UniProt P0ADG7).
T1 sequence (P0ADG7 1-488): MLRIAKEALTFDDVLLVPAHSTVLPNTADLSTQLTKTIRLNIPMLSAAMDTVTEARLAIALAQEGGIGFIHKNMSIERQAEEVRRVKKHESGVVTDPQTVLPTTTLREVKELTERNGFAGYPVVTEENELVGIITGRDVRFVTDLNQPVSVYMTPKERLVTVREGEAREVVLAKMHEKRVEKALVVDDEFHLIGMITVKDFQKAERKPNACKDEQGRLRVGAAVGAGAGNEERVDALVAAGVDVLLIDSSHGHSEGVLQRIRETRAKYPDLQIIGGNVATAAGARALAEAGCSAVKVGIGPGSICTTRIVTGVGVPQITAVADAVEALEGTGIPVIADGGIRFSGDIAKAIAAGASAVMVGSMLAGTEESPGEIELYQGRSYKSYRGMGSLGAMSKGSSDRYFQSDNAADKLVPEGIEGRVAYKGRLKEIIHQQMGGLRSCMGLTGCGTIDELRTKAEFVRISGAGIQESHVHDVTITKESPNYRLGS
Briefly: NADH production, absorbance at […] nm.

The next test has as its target T2, hIMPDH2 (Homo sapiens, UniProt P12268).
T2 construct: gene IMPDH2; not described in the main text
Put plainly: enzyme inhibition, method not given. The text has this: enzyme inhibition, method not described in main text on hIMPDH2

The target in another test is T3, GuaB^Ab (Acinetobacter baumannii, UniProt D0CF46).
T3 construct: recombinant A. baumannii GuaB
T3 sequence (D0CF46 1-488): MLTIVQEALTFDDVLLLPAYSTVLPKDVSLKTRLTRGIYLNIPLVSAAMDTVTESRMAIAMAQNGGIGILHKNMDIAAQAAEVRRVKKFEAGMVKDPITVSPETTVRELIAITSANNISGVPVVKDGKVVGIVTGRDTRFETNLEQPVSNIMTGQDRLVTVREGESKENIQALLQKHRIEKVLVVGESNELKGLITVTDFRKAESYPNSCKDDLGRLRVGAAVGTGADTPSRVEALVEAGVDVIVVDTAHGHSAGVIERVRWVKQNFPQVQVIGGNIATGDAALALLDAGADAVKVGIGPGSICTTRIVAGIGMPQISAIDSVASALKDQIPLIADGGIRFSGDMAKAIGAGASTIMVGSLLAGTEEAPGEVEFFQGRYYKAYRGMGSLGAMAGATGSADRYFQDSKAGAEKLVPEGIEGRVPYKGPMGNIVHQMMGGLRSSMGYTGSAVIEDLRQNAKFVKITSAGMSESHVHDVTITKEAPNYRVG
Put plainly: NADH production, NAD(P)H-Glo luminescence. The text has this:
NADH production, NAD(P)H-Glo luminescence on GuaB^Ab

Some results are limits rather than exact numbers.

T2 sequence (P12268 2-514): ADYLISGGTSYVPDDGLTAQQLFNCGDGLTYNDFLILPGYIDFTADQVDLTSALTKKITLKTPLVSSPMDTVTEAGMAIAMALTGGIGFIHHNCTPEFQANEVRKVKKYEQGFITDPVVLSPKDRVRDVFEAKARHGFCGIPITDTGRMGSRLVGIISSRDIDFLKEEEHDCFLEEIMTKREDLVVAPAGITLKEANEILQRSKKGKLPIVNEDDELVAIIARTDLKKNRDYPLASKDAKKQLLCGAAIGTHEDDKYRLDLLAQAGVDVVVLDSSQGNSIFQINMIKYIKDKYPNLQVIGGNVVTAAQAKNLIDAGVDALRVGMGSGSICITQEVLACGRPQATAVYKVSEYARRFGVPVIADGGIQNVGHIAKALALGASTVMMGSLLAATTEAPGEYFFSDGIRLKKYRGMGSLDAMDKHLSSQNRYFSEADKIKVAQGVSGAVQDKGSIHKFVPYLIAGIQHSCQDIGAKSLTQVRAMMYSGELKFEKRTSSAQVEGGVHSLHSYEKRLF
Sequence of GuaB^Sa (Q2FJM6 whole entry): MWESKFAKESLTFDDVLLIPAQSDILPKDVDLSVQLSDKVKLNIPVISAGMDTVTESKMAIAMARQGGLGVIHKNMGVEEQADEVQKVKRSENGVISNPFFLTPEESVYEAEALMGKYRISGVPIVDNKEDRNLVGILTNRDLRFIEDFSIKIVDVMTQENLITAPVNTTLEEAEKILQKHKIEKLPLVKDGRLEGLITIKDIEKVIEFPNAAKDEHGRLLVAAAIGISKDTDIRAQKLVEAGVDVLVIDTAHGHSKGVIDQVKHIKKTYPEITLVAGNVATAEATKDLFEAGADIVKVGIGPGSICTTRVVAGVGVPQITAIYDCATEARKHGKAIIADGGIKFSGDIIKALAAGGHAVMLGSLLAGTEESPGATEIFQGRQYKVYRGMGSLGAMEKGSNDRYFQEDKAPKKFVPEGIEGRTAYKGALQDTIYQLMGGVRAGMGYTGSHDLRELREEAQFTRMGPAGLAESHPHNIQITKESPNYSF

For the compound `C[C@H](Nc1ccc2ncc(CO)cc2c1)C(=O)Nc1ccc(Cl)c(N(C)C)c1` [G2], the IC50 is 3.5 nM on GuaB^Sa, 15.8 nM at GuaB^Ec, > 50000 nM against hIMPDH2 and 0.666 nM against GuaB^Ab.

As to `C[C@H](Nc1ccc2ncc(CO)cc2c1)C(=O)Nc1ccc(Br)nc1` [G3], the half-inhibitory concentration (IC50) was 2.45 nM on GuaB^Sa, 91 nM against GuaB^Ec, > 50000 nM at hIMPDH2 and 0.975 nM on GuaB^Ab.

`C[C@H](Nc1ccc(-n2cncn2)cc1)C(=O)Nc1ccc2sc(-c3cc[n+]([O-])cc3)nc2c1` [G4]: the half-maximal inhibitory concentration (IC50) is 0.62 nM against GuaB^Sa, 903 nM at GuaB^Ec, > 50000 nM against hIMPDH2 and 0.617 nM on GuaB^Ab.

For `C[C@H](Nc1ccc(-n2cccn2)cc1)C(=O)Nc1ccc2sc(-c3ccncc3)nc2c1` [G5], the IC50 at GuaB^Sa is 0.511 nM; against GuaB^Ec, 569 nM; at hIMPDH2, > 50000 nM; on GuaB^Ab, 0.394 nM.

Consider `C[C@H](Nc1ccc2ncc(CO)cc2c1)C(=O)Nc1ccc(Cl)c(N2CCOCC2)c1` [G6], for which the IC50 was 0.801 nM on GuaB^Sa, 5.9 nM against GuaB^Ec, > 50000 nM at hIMPDH2 and 0.564 nM on GuaB^Ab.
